This is an account of results in PubChem BioAssay AID330 (DTP/NCI, 2004).

Structures are written as SMILES. Where “and” joins values, the source holds several entries; their conditions need not be identical. Equal values may be shown once. Toxic doses and inconclusive results are not listed.

For this test, the system named is P388 leukemia ip, CD2F1 mice, survival T/C. Put plainly: NCI In Vivo Anticancer Drug Screen. Data for tumor model P388 Leukemia (intraperitoneal) in CD2F1 (CDF1) mice. Particulars: endpoint: median survival time, higher = longer survival. In outline: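 Mice carrying the transplanted tumor received test compound or vehicle. Survival was recorded in each group, and the value is the treated-group measurement divided by that of the vehicle-treated control group.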

Where [1] appears, read: dose: 50.0 mg/kg/injection, schedule: Q01DX005 (ip), vehicle: saline with Tween-80.
Setting [2] is: dose: 100.0 mg/kg/injection, schedule: Q01DX005 (ip), vehicle: saline with Tween-80.
[3] abbreviates: dose: 200.0 mg/kg/injection, schedule: Q01DX005 (ip), vehicle: saline with Tween-80.
[4] abbreviates: dose: 50.0 mg/kg/injection, schedule: Q01DX009 (ip), vehicle: saline.
The mark [5] stands for this setting: dose: 100.0 mg/kg/injection, schedule: Q01DX009 (ip), vehicle: saline.
The mark [6] stands for this setting: dose: 200.0 mg/kg/injection, schedule: Q01DX009 (ip), vehicle: saline.
The mark [7] stands for this setting: dose: 50.0 mg/kg/injection, schedule: Q01DX009 (ip), vehicle: saline with Tween-80.
The mark [8] stands for this setting: dose: 100.0 mg/kg/injection, schedule: Q01DX009 (ip), vehicle: saline with Tween-80.

With `CN[C@H]1CCc2cc(OC)c(OC)c(OC)c2-c2ccc(OC)c(=O)cc21`, the T/C (dose: 0.5 mg/kg/injection, schedule: Q01DX009 (ip), vehicle: saline) was 109 % of control; the T/C (dose: 0.5 mg/kg/injection, schedule: Q01DX009 (ip), vehicle: water) was 109 % of control; the T/C (dose: 0.63 mg/kg/injection, schedule: Q01DX009 (ip), vehicle: water) was 112 % of control; the T/C (dose: 1.0 mg/kg/injection, schedule: Q01DX009 (ip), vehicle: saline with Tween-80) is 117 % of control; the T/C (dose: 1.0 mg/kg/injection, schedule: Q01DX009 (ip), vehicle: saline) is 104 % of control and 124 % of control; the T/C (dose: 2.0 mg/kg/injection, schedule: Q01DX009 (ip), vehicle: saline with Tween-80) was 98 % of control. Besides, the T/C (dose: 2.0 mg/kg/injection, schedule: Q01DX009 (ip), vehicle: saline) is 104 % of control and 121 % of control; the T/C (dose: 4.0 mg/kg/injection, schedule: Q01DX009 (ip), vehicle: saline with Tween-80) was 95 % of control; the T/C (dose: 4.0 mg/kg/injection, schedule: Q01DX009 (ip), vehicle: saline) is 104 % of control; the T/C (dose: 4.0 mg/kg/injection, schedule: Q04DX003 (ip), vehicle: saline with Tween-80) is 103 % of control; the T/C (dose: 5.0 mg/kg/injection, schedule: Q01DX009 (ip), vehicle: water) was 117 % of control; the T/C (dose: 8.0 mg/kg/injection, schedule: Q01DX009 (ip), vehicle: saline) was 121 % of control. Besides, the T/C (dose: 8.0 mg/kg/injection, schedule: Q01DX009 (ip), vehicle: water) was 152 % of control; the T/C (dose: 8.0 mg/kg/injection, schedule: Q04DX003 (ip), vehicle: saline with Tween-80) was 101 % of control; the T/C (dose: 10.0 mg/kg/injection, schedule: Q01DX009 (ip), vehicle: water) was 155 % of control; the T/C (dose: 16.0 mg/kg/injection, schedule: Q04DX003 (ip), vehicle: saline with Tween-80) was 102 % of control; the T/C (dose: 32.0 mg/kg/injection, schedule: Q04DX003 (ip), vehicle: saline with Tween-80) is 102 % of control.

`O=C1CN(c2cccc(Cl)c2)C(=O)CN1/N=C/c1ccco1`: the T/C was 109 % of control under setting [1], 107 % of control under setting [2] and 98 % of control under setting [3].

For the molecule `O=C(NC(CCS(=O)(=O)n1ccnc1)C(=O)OCc1ccccc1)OCc1ccccc1` (stereo not given), the T/C was 97 % of control (dose: 12.5 mg/kg/injection, schedule: Q01DX009 (ip), vehicle: other); 104 % of control (dose: 25.0 mg/kg/injection, schedule: Q01DX009 (ip), vehicle: other); 106 % of control (dose: 50.0 mg/kg/injection, schedule: Q01DX009 (ip), vehicle: other); 97 % of control (dose: 100.0 mg/kg/injection, schedule: Q01DX009 (ip), vehicle: other); 90 % of control (dose: 200.0 mg/kg/injection, schedule: Q01DX009 (ip), vehicle: other).

With `C#CCOCC1CO1` (stereo not given), the T/C is, setting by setting: under setting [4], 110 % of control; under setting [5], 110 % of control; under setting [6], 115 % of control.

Take `[Cl-].[Cl-].[Co+3].[NH-]CC[NH-].[NH-]CC[NH-].[O-][Cl+3]([O-])([O-])O`: the T/C is 102 % of control (dose: 25.0 mg/kg/injection, schedule: Q01DX009 (ip), vehicle: saline with Tween-80); 105 % of control and 117 % of control under setting [7]; 111 % of control and 123 % of control under setting [8].

For the molecule `Cn1c(N(CCN2CCOCC2)C(=O)/C=C\c2ccccc2)cc(=O)n(C)c1=O`, the T/C runs as follows: under setting [1], 105 % of control; (dose: 50.0 mg/kg/injection, schedule: Q01DX005 (ip), vehicle: water) 103 % of control; under setting [2], 100 % of control; (dose: 100.0 mg/kg/injection, schedule: Q01DX005 (ip), vehicle: water) 112 % of control; under setting [3], 97 % of control; (dose: 200.0 mg/kg/injection, schedule: Q01DX005 (ip), vehicle: water) 109 % of control.

In the case of `C=CCCCC(C#N)c1ccc2c(c1)OCO2` (stereo not given), the T/C by setting is: (dose: 50.0 mg/kg/injection, schedule: Q01DX005 (ip), vehicle: saline) 105 % of control; (dose: 100.0 mg/kg/injection, schedule: Q01DX005 (ip), vehicle: saline) 105 % of control; (dose: 200.0 mg/kg/injection, schedule: Q01DX005 (ip), vehicle: saline) 101 % of control.

Consider `CCCCCCC1(/C=C/c2ccc(Cl)cc2Cl)OCC(C)(C)CO1`, for which the T/C was 102 % of control (dose: 50.0 mg/kg/injection, schedule: Q01DX009 (ip), vehicle: saline + alcohol); 102 % of control (dose: 100.0 mg/kg/injection, schedule: Q01DX009 (ip), vehicle: saline + alcohol); 102 % of control (dose: 200.0 mg/kg/injection, schedule: Q01DX009 (ip), vehicle: saline + alcohol).

For `C=CC(=O)NC(C)(C)C(=O)O`, the T/C was 99 % of control under setting [4], 97 % of control under setting [5] and 99 % of control under setting [6].

Take `Cn1c(N)c2c(=O)n(C)c3c(c2c(C#N)c1=O)CCSc1ccccc1-3`: the T/C was 94 % of control under setting [1] and 93 % of control under setting [2].

For `CN(NC=O)C(=N)N`, the T/C by setting is: (dose: 50.0 mg/kg/injection, schedule: Q01DX001 (ip), vehicle: saline) 109 % of control; (dose: 100.0 mg/kg/injection, schedule: Q01DX001 (ip), vehicle: saline) 100 % of control; (dose: 200.0 mg/kg/injection, schedule: Q01DX001 (ip), vehicle: saline) 102 % of control.

Consider `C=C1C(=O)OC2/C=C(\C)CC/C=C(/C)CC(OC(=O)/C(=C/CO)CO)C12` (stereo not given), for which the T/C was 108 % of control and 113 % of control (dose: 5.0 mg/kg/injection, schedule: Q01DX009 (ip), vehicle: Klucel (hydroxypropylcellulose) (HPC)); 106 % of control and 115 % of control (2×) (dose: 10.0 mg/kg/injection, schedule: Q01DX009 (ip), vehicle: Klucel (hydroxypropylcellulose) (HPC)); 106 % of control and 117 % of control (dose: 20.0 mg/kg/injection, schedule: Q01DX009 (ip), vehicle: Klucel (hydroxypropylcellulose) (HPC)); 113 % of control and 117 % of control and 89 % of control (dose: 40.0 mg/kg/injection, schedule: Q01DX009 (ip), vehicle: Klucel (hydroxypropylcellulose) (HPC)).

On to `Oc1cc2c(cc1C(c1ccc(F)cc1)N1CCOCC1)OCO2` (stereo not given), for which the T/C runs as follows: (dose: 60.0 mg/kg/injection, schedule: Q01DX005 (ip), vehicle: saline with Tween-80) 117 % of control; (dose: 120.0 mg/kg/injection, schedule: Q01DX005 (ip), vehicle: saline with Tween-80) 102 % of control; (dose: 240.0 mg/kg/injection, schedule: Q01DX005 (ip), vehicle: saline with Tween-80) 108 % of control.

On to `O=C(OCc1ccccc1)N1CC=CC1Cc1ccccc1` (stereo not given), for which the T/C is 97 % of control (dose: 100.0 mg/kg/injection, schedule: Q01DX001 (ip), vehicle: distilled water + alcohol); 99 % of control (dose: 200.0 mg/kg/injection, schedule: Q01DX001 (ip), vehicle: distilled water + alcohol); 100 % of control (dose: 400.0 mg/kg/injection, schedule: Q01DX001 (ip), vehicle: distilled water + alcohol).

As to `Cc1nn(C(=O)c2cccnc2)c(-c2ccccc2)c1N=Nc1ccc(S(=O)(=O)N=C(N)N)cc1`, the T/C is 98 % of control (dose: 3.12 mg/kg/injection, schedule: Q01DX005 (ip), vehicle: saline with Tween-80); 95 % of control (dose: 6.25 mg/kg/injection, schedule: Q01DX005 (ip), vehicle: saline with Tween-80); 105 % of control and 86 % of control (dose: 12.5 mg/kg/injection, schedule: Q01DX005 (ip), vehicle: saline with Tween-80); 89 % of control under setting [1].

Turning to `CC1=Nc2ccc([N+](=O)[O-])cc2N=C(C)C1`, the T/C under setting [7] was 101 % of control; the T/C under setting [8] was 98 % of control; the T/C (dose: 100.0 mg/kg/injection, schedule: Q04DX002 (ip), vehicle: saline) was 101 % of control; the T/C (dose: 200.0 mg/kg/injection, schedule: Q01DX009 (ip), vehicle: saline with Tween-80) is 90 % of control; the T/C (dose: 200.0 mg/kg/injection, schedule: Q04DX002 (ip), vehicle: saline) was 101 % of control; the T/C (dose: 400.0 mg/kg/injection, schedule: Q04DX002 (ip), vehicle: saline) was 105 % of control.

`CC(=O)Nc1ccc(S(N)(=O)=O)cc1`: the T/C reads like this: (dose: 25.0 mg/kg/injection, schedule: Q01DX009 (ip), vehicle: saline) 96 % of control; under setting [4], 95 % of control; under setting [5], 96 % of control; under setting [6], 102 % of control.
